Assay results taken from article PMC4627231, “Targeting the sugar metabolism of tumors with a first-in-class 6-phosphofructo-2-kinase (PFKFB4) inhibitor” (Oncotarget, 2015).

Tests used:
H460 cells = test: Cell cycle analysis by flow cytometry (PI); type: cell-based, human; details: 10μM 5MPN
Procedure: To measure apoptosis, cells were stained with annexin V and propidium iodide and examined as previously described. For cell cycle experiments, cells were detached, washed with cold PBS and fixed in 70% ethanol at 4°C for 30 minutes. The cells then were pelleted by centrifugation, resuspended in PBS containing PI and RNase A, incubated at 37°C in the dark for 30 minutes and analyzed by flow cytometry (BD FACSCalibur). Data were analyzed using FlowJo software (TREE STAR Inc.). Results were calculated as the mean ± SD of three experiments and data shown are representative of three independent experiments.

[1] = Pharmacokinetic profile after IV and oral administration; type: in vivo; details: mouse, female C57BL/6 mice, plasma
Procedure: The pharmacokinetic profile was determined in female C57BL/6 mice (Charles River Laboratories) following IV and oral administration of 5MPN. Using only female mice lowered the animal numbers required for meaningful results without issues of potential gender differences in exposure. Eight time points (n=3 per time point) were used to determine indicated PK parameters calculated using WinNonLin v5.0. Plasma samples were extracted using acetonitrile and analyzed by LC/MS-MS using a PhenomexSynergi Polar-RP 4micron 50×2.0 mm column eluted with a biphasic mobile phase (0.5% formic acid in acetonitrile and water).

[2] = system: Ki67-positive cells in LLC xenografts; test: Ki67 immunohistochemistry of LLC tumors; type: in vivo, C57BL/6 mice; details: oral administration
Procedure: Five μm mounted sections of formalin-fixed, paraffin-embedded LLC tumor tissues were processed as previously described and then incubated with anti-Ki-67 primary antibody (Abcam) overnight, followed by HRP-linked goat anti-rabbit secondary antibody (1:300, Pierce). Sections were developed with 3,3′-diaminobenzidine tetrahydrochloride and counterstained as previously described. Slides were scanned using a ScanScope XT Digital Slide Scanner (Aperio), data analyzed with the positive pixel count algorithm (ImageScope, Aperio) and a minimum of 5 fields (20x magnification) were quantified for each tumor section. The data are depicted as % positive pixels/total pixels ± SD.

## COc1cccc2c(NCCCCCO[N+](=O)[O-])ccnc12 [Compound 5MPN, 5-(n-(8-methoxy-4-quinolyl)amino)pentyl nitrate]
H460 cells
  cell cycle arrest: marked G1 arrest
[1]; iv, 2 mg/kg, I.V.
  AUC(0-inf): 114 ng·h/mL
  AUC(0-t): 111 ng·h/mL
  C0: 249 ng/mL
  half-life: 0.387 h
[1]; iv, 2 mg/kg, I.V., read-out: Vss
  Vd: 8.48 L/kg
[1]; iv, I.V.
  MRT: 0.485 h
  clearance: 291 mL/min/kg
[1]; po, 10 mg/kg, P.O
  MRT: 2.31 h
[1]; po, P.O
  AUC(0-inf): 234 ng·h/mL
  AUC(0-t): 225 ng·h/mL
  Cmax: 98.7 ng/mL
  bioavailability: 40.9%
  half-life: 1.67 h
[2]
  Ki67-positive cells: reduction
